Assay results as given in article PMC11678782, “The Antioxidant and Anti-Inflammatory Activities of the Methanolic Extract, Fractions, and Isolated Compounds from Eriosema montanum Baker f. (Fabaceae)” (Molecules, 2024).

Assays:
soybeans 15-LOX = target: T1, soybeans 15-LOX (Glycine max, UniProt P08170); assay: 15-lipoxygenase enzyme inhibitory assay (FOX); format: biochemical, soybean; conditions: linoleic acid substrate, FOX reagent, 560 nm; read-out: IC50 15-LOX (converted)
T1 construct: purchased Merck, Darmstadt, Germany
T1 sequence (P08170 1-839): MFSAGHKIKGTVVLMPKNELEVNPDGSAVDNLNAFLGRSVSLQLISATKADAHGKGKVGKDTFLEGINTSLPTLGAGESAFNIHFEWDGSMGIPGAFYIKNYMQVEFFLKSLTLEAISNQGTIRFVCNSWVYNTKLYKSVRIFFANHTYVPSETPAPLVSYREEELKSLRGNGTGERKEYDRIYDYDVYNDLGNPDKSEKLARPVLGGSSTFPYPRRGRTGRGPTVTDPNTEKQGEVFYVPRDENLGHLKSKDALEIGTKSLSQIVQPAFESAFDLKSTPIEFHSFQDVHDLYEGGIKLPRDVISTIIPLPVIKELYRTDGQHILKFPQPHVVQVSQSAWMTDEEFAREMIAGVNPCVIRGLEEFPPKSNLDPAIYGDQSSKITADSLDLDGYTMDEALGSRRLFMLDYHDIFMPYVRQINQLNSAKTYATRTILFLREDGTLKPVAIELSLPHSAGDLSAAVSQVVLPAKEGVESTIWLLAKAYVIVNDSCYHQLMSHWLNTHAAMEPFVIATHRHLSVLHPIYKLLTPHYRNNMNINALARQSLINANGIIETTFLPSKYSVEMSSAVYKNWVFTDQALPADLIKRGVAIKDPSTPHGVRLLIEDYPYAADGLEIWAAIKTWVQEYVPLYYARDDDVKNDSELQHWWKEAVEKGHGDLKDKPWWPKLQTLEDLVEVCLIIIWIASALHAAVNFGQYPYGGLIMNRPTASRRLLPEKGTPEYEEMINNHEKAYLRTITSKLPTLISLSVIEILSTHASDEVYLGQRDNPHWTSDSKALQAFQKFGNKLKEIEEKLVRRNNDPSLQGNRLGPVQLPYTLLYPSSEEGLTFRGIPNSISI
Procedure: The method developed by Pinto et al. was used to determine the effect of the tested samples on 15-LOX inhibitory activity, with slight modifications to the 96-well microtitre plate format. Using 20 µL of tested samples at varying concentrations (3.90 to 500 µg/mL), the soybeans 15-LOX (Merck, Darmstadt, Germany) (40 µL, 200 UI/mL) were incubated at 25 °C for 5 min. The plate was then incubated at 25 °C for 20 min in the dark; after, 40 µL of linoleic acid (final concentration, 140 μM) produced in Tris-HCl buffer (50 mM, pH 7.4) was added. A total of 100 µL of the FOX reagent—sulfuric acid (30 mM), xylenol orange (100 μM), and ferrous II) sulfate (100 μM) mixed in methanol/water (9:1)—was added to terminate the test. A SpectraMax iD3 multi-mode microplate reader (Molecular Devices, San Jose, CA, USA) was used to measure the absorbance at 560 nm following 30 min of incubation at 25 °C in the dark. Gallic acid (0.78 to 100 µg/mL) was employed as the usual inhibitor of 15-LOX, while DMSO at 5% (v/v) served as the negative control. With the exception of adding the substrate after the FOX reagent, the blanks were prepared exactly like the tested samples. Formula (2) below was used to compute the 15-LOX inhibitory activity. 15 LOX inhibitory activity (%) = 100 − [(A0 − A1) − (A2 − A1)] × 100(2) where A0 is absorbance of test samples, A1 is absorbance of blank, and A2 is absorbance of negative control (DMSO 5%).
(§1) The IC50 values were calculated for each biological experiment using the nonlinear regression curve of the % inhibitory activity versus the logarithm (log10) of the various tested concentrations using GraphPad Prism 6.0 software (GraphPad Software, Inc., San Diego, CA, USA). The data are shown as mean ⁱ SEM (standard error of the mean) values, and all biological experiments were conducted in triplicate (n = 3). The statistical analysis was conducted using GraphPad Prism 6.0 software (GraphPad Software, Inc., San Diego, CA, USA). One-way analysis of variance (ANOVA) was used to compare the data across the tested samples and/or controls, and Student–Newman–Keuls or Dunnett’s tests were then performed. A p-value of less than 0.05 indicated a significant difference in the results.

[1] = Ferric reducing antioxidant power (FRAP) assay; conditions: relative to 200 µg/mL gallic acid, 700 nm
Procedure: Three in vitro antioxidant assays, namely, 2,2′-azinobis-(3-ethylbenzothiazoline-6-sulfonic acid (ABTS), 2,2′-diphenyl-1-picrylhydrazyl (DPPH), and ferric ion reducing antioxidant power (FRAP), were used to determine the antioxidant activity according to methods previously reported. Ascorbic acid (0 to 200 μg/mL) was used as positive control in these experiments, and Formula (1) below allowed us to evaluate the percentage of radical scavenging capacity. The inhibitory concentration (IC50) values were evaluated by plotting a nonlinear graph of percentage radical scavenging capacity versus logarithm of tested concentrations. Scavenging capacity (%) = [(A0 − A1)/A0] × 100(1) where A0 is absorbance of negative control, and A1 is absorbance of extract with ABTS^•+ radical cation.
The generally used and almost standard method for performing the FRAP test is that developed by Benzie and Strain [15]. Indeed, the antioxidant power is determined in a colorimetric reaction linked to redox in which an intense blue-colored ferroustripyridyltriazine (Fe^2+-TPTZ) complex is obtained via reduction at a low pH of ferrictripyridyltriazine (Fe^3+-TPTZ). The incubation of a quantity of 50 μL of EMME (1.56 to 200 μg/mL) or 200 μg/mL of gallic acid (Merck, Lethabong, South Africa) on a 96-well plate was carried out with 50 μL of 1% potassium ferricyanide (prepared in 0.2 M of sodium phosphate buffer, pH 6.6) for 30 min at 50 °C. Then, 50 μL of 10% trichloroacetic acid (TCA), 40 μL of distilled water, and 10 μL of 0.1% ferric chloride were added, respectively. The absorbance values were recorded on a blank (extract plus sodium phosphate buffer) at 700 nm on a SpectraMax iD3 multi-mode microplate reader (Molecular Devices, San Jose, CA, USA); the FRAP activity was indicated as inhibition percentage of 200 μg/mL of gallic acid.
as §1

[2] = design: method as in PMID 12510840, PMID 22997529; conditions: ONOO−, DPPH•, ABTS•+; cited from earlier work

Row | SMILES | IC50 (soybeans 15-LOX) | IC50 FRAP [1] | Antioxidant properties via scavenging activity [2]
1 | CCCCCCCCCCCCCCCCCCCCCCCO [Compound 3, tricosan-1-ol] | > 587 µM | >200 µg/mL | 
2 | CC[C@H](/C=C/[C@@H](C)[C@H]1CC[C@H]2[C@@H]3CC=C4C[C@@H](O[C@@H]5O[C@H](CO)[C@@H](O)[C@H](O)[C@H]5O)CC[C@]4(C)[C@H]3CC[C@]12C)C(C)C [Compound 7, stigmasterol glucoside] | > 348 µM | >200 µg/mL | 
3 | CCCCCCCCCCCCCCCC [Compound 1, n-hexadecane] | > 883 µM | >200 µg/mL | 

Continued, in another order:

Row | IC50 (soybeans 15-LOX) | IC50 FRAP [1] | SMILES | Antioxidant properties via scavenging activity [2]
4 | > 1030 µM | >200 µg/mL | CO[C@H]1[C@H](O)[C@@H](O)[C@@H](O)[C@H](O)[C@@H]1O [Compound 6, D-pinitol] | 
5 | 414 µM | >200 µg/mL | O=c1c(-c2ccc(O)cc2)coc2cc(O[C@@H]3O[C@H](CO)[C@@H](O)[C@H](O)[C@H]3O)cc(O)c12 [Compound 5, genistin] | moderate antioxidant properties
6 | > 704 µM | >200 µg/mL | O=c1c2c(O)cc(O)cc2oc2oc3cc(O)ccc3c12 [Compound 4, lupinalbin A] | 
